Experiments:
[1] = molecular target: T1, CISD2 Gene Product (NAF-1) (Homo sapiens, UniProt Q8N5K1); assay: Stability of Fe-S cluster binding of purified NEET protein (absorbance 458 nm), NAF-1; assay type: biochemical
T1 sequence (Q8N5K1 57-135 limits assumed): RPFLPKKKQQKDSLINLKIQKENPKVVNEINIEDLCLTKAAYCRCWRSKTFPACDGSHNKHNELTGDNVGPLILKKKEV
Experimental: The modulator effect on the NEET proteins encoded by human CISD1, CISD2, and CISD3 genes by the compounds of the invention has been tested and is reported below. Particularly, the biochemical function of the NEET proteins is measured by the stability of Fe—S cluster binding of the purified NEET proteins.
The Fe—S cluster binding capacity of NEET proteins is known to be coordinated by four amino-acids in a stretch of 16 (three Cysteine and one Histidine). As the lability of the Fe—S cluster of NEET proteins is sensitive to the environment, cluster stability measurements are one of the measures of interactions of NEET proteins with small molecules and compounds. NEET protein/2Fe-2S cluster stability can be assessed by monitoring the decay in absorbance of its characteristic 458-nm peak (characteristic of the oxidized 2Fe-2S cluster) over time. Each NEET protein (mitoNEET, NAF-1 and Miner 2) was tested for its Fe—S binding in the absence or presence of a compound according to the invention (see table 3 below). […]
At pH 6, all the three NEET proteins (mitoNEET, NAF-1 and Miner 2) have a characteristic rate of loss of the bound Fe—S cluster that can be measured by the decrease of absorbance at wavelength 458 nm over time, using a spectrophotometer. […]
A reaction mix containing DMSO diluted in the Bis-Tris Buffer with or without a compound of the invention was prepared. […] The absorbance at wavelength 458 nm was taken at 5 minutes intervals at 37° C. with a spectrofluorimeter. […]
In addition to time monitoring, residual bound Fe—S cluster to NEET protein was measured at the final point of the spectrometry assay for each Test sample and compared to the Control sample data (in parenthesis table 3). This residual binding is measured by the differential percentage between the absorbance 458 nm at time zero and the absorbance 458 nm at the end of the experiment (i.e. respectively 500 or 180 minutes as described hereabove), showing the percentage of NEET protein still able to bind a Fe—S cluster. […]

[2] = system: PRXF PC-3M; assay: Cytotoxicity, propidium iodide based monolayer assay, PRXF PC-3M; assay type: cell-based; conditions: Homo sapiens, 96 h; PRXF PC-3M (prostate adeno carcinoma), four days of treatment, T/C=50%; read-out: Absolute IC50
Experimental: The cytotoxicity was tested for compounds of the invention on five different cell-lines, namely LXFL 1121, MAXF 401, MMXF L-636, PRXF PC-3M and UXF 1138 which are respectively lung large cell carcinoma, breast adeno carcinoma, multiple myeloma, prostate adeno carcinoma and uterine sarcoma.
A working stock solution of the test compounds was prepared in DMSO at a concentration of 33 mM or 8.25 mM, and small aliquots were stored at −20° C. On each day of an experiment, a frozen aliquot of the working stock solution was thawed and stored at room temperature prior to and during treatment.
All liquid handling steps were performed using the Tecan Freedom EVO 200 platform. First, serial 2-fold dilutions of the 33 mM DMSO working stock solution were done in DMSO. […]
A modified propidium iodide (PI) based monolayer assay was used to assess the anti-cancer activity of the compounds. Briefly, cells were harvested from exponential phase cultures, counted and plated in 96 well flat-bottom microtiter plates at a cell density of 4,000 to 40,000 cells/well dependent on the cell line's growth rate. […] After an incubation period of 1-2 hours at room temperature, fluorescence (FU) was measured using the Enspire Multimode Plate Reader (excitation λ=530 nm, emission λ=620 nm) to quantify the amount of attached viable cells. […]

SMILES: O=C(Nc1scc(C2CCc3ccccc3C2)c1C(=O)O)c1ccccc1 (stereo not shown) [#16]
- Time (in minutes) to achieve 50% loss of bound cluster (Absorbance 458 nm) ([1]; NAF-1 20 μM, compound 60 μM, pH 6, 37° C., vehicle control 310): 35 (310) minutes
- Residual cluster bound at end of experiment (Percentage Absorbance 458 nm at time zero) ([1]; NAF-1, end of experiment 500 minutes, compound 60 μM, pH 6, vehicle control 3%): 4% (3%)
- Stabiliser or destabiliser of NEET protein/Fe-S cluster binding ([1]; NAF-1, destabiliser = time to 50% cluster loss decreased by more than 25% vs control): destabilisers
- IC50 [2]: 0.485 µM

Reference: US11767316B2, “Non-fused thiophene derivatives and their uses” (ENYO PHARMA, priority 2018, dated 2023)
